Patent US9358272B2, “Multicomponent compositions and their uses” (THE ADMINISTRATORS OF THE TULANE EDUCATIONAL FUND, priority 2011, dated 2016)
“Also recorded” adds a separate entry of the source.

Assays:
[1] = test system: cervical cancer Hela cells; experiment: Cell proliferation assay (MTT), cervical cancer Hela cells; assay type: cell-based, Human; settings: single agents and combinations, VPA 2.5 mM in FIGS. 19, 22
Description: (§7) Briefly, fifty μl of medium with or without tested compounds was added to 96-well plates. Another 50 μl of tested cancer cells (1×10^5 cells/ml) suspended in culture medium was dispensed into each well. The plates were incubated at 37° C. for 3 days. Afterward, plates were added with a 15 μl dye solution per well and incubated at 37° C. for 4 hours. To each well was then added 100 μl of the solubilization solution and the plates were incubated at 37° C. again until the contents in each well became a uniformly colored solution. The plates were measured at 570 nm by a Victor Reader (PerkinElmer).

[2] = test system: small cell lung cancer DMS-53 cells; experiment: Cell proliferation assay (MTT), DMS-53 cells; assay type: cell-based; settings: single agents and combinations, 2.5 mM VPA or 10 uM SBHA in FIGS. 21, 24
Description: as §7

[3] = test system: pancreatic cancer CFPAC-1 cells; experiment: Cell proliferation assay (MTT), CFPAC-1 cells; assay type: cell-based, Human; settings: single agents and combinations
Description: (§1) Cell Proliferation Assay (MTT)
(§2) The cell proliferation assay was performed as described previously in Sun et al., Bioorg Med Chem Lett, 2004, Vol. 14, pp. 2041-2046. Briefly, 50 μl aliquots of medium with different concentrations of compounds were added to 96-well plates. All compound concentrations were tested in triplicate. Another 50 μl of the cell stock (1×10^5 cells/ml of media) was dispensed into each test well and the plates were incubated at 37° C. in a CO2 incubator for 3 days. Following the incubation period, 15 μl of the dye solution was added to each well and the plates were then incubated at 37° C. for 4 hours, followed by the addition of 100 μl per well of the solubilization solution. The plates were incubated at 37° C. until the contents in each well became a uniform-colored solution. The absorbance was measured and recorded at 570 nm by a Victor Plate Reader.
(§3) The cell proliferation assay (Promega, Madison, Wis.) was performed as described in Sun et al., Bioorg Med Chem Lett, 2004, Vol. 14, pp. 2041-2046. The absorbance was measured and recorded at 570 nm by a Victor Plate Reader (PerkinElmer, Boston, Mass.).

[4] = test system: colonrectal cancer HT-29 cells; experiment: Cell proliferation assay (MTT), HT-29 cells; assay type: cell-based, Human; settings: single agents and combinations
Description: as §1, §2, §3

[5] = test system: lung cancer A549 cells; experiment: Cell proliferation assay (MTT), A549 cells; assay type: cell-based
Description: (§4) Cell Proliferation Assay (MTT) The cell proliferation assay (Promega, Madison, Wis.) was performed as described in Sun et al., Bioorg Med Chem Lett, 2004, Vol. 14, pp. 2041-2046. The absorbance was measured and recorded at 570 nm by a Victor Plate Reader (PerkinElmer, Boston, Mass.).

[6] = test system: prostate cancer DU-145 cells; experiment: Cell proliferation assay (MTT), DU-145 cells; assay type: cell-based; settings: single agents and combinations
Description: as §4

[7] = test system: prostate cancer PC-3 cells; experiment: Cell proliferation assay (MTT), PC-3 cells; assay type: cell-based; settings: single agents and combinations
Description: as §4

[8] = test system: ovarian cancer SKOV3 cells; experiment: Cell proliferation assay (MTT), SKOV3 cells; assay type: cell-based; settings: single agents and combinations
Description: as §4

[9] = test system: ovarian cancer NCI/ADR-RES cells; experiment: Cell proliferation assay (MTT), NCI/ADR-RES cells; assay type: cell-based
Description: as §4

[10] = test system: medullary thyroid cancer (MTC) TT cells; experiment: Cell proliferation assay (MTT), TT cells; assay type: cell-based; settings: single agents and combinations
[11] = test system: hepatoma HTB-52 cells; experiment: Cell proliferation assay (MTT), HTB-52 cells; assay type: cell-based; settings: single agents and combinations
Description: as §4

[12] = test system: osteosarcoma U2OS cells; experiment: Cell proliferation assay (MTT), U2OS cells; assay type: cell-based, Human
Description: as §4

[13] = test system: pancreatic carcinoid BON tumors; experiment: In vivo tumor growth and treatment, BON tumors; set-up: species or system nude mice; settings: FIG. 43
Description: In Vivo Tumor Growth and Treatment
All mice were monitored weekly. Tumor volumes were measured at 11 days post-implantation and bodyweights taken once a week. Tumors were weighed and photographed when experiments were over.
After being harvested during exponential growth phase, cells were washed 3 times with ice-cold PBS and then re-suspended in ice-cold PBS at a cell density of 4×10^7 cells/ml. […] Tumor-carrying mice were separated into four groups (n=8-10) for further treatment using s.c. injections that was applied in the flank opposite of the tumors. A control group was injected with PBS, and three tested groups were treated with compounds. One group received conjugate COL-SST (2 mg/kg) and one group received 200 mg/kg of VPA. The last group was treated with 100 mg/kg of VPA in combination with 1 mg/kg of COL-SST. All mice were injected once a day, five times a week. Tumor volumes were measured and bodyweights taken once a week.
After being harvested during their exponential growth phase, cells were washed 3 times with ice-cold PBS and then re-suspended in ice-cold PBS at a cell density of 4×10^7 cells/ml. […] Tumor-carrying mice were separated into four groups (n=8-10) for further treatment using s.c. injections that were applied in the flank opposite to the tumors. […] Tumor volumes were measured and bodyweights taken once a week.

[14] = test system: gene expression in MTC TT cells; experiment: RT-PCR / real-time PCR gene expression, TT cells; assay type: cell-based
Description: (§5) RT-PCR, Real-Time PCR RT-PCR was performed on total RNA that was isolated from tumor cells as described in the protocol (Invitrogen, Carlsbad, Calif.). All primers for SST, BN, and PACAP receptors were obtained from previously published reports, such as Sun et al. 2011. The PCR amplification is regularly 35 cycles, with more or less cycles due to the difference in RNA abundance of these investigated genes. Primers used for real-time PCR analyses were identical to those described above. Real-time PCR assays were performed as described in Sun et al 2011. β-actin was used as the internal control and results were calculated by applying 2^−ΔΔCT methods as described above.

[15] = test system: gene expression in hepatoma HTB-52 cells; experiment: RT-PCR / real-time PCR gene expression, HTB-52 cells; assay type: cell-based
Description: as §5

[16] = test system: hepatoma HTB-52 cells; experiment: VPA-induced cell morphological change, HTB-52 cells; assay type: cell-based
Source text: (§6) The cancer cells were inspected and photographed under an inverted light microscope at 10× magnification.

[17] = test system: lung cancer A549 cells; experiment: VPA-induced cell morphological change, A549 cells; assay type: cell-based
Source text: as §6

[18] = test system: SCLC DMS53 cells; experiment: VPA-induced cell morphological change, DMS53 cells; assay type: cell-based
Source text: as §6

[19] = test system: cancer DU-145 cells; experiment: VPA-induced cell morphological change, DU-145 cells; assay type: cell-based
Source text: as §6

[20] = test system: Leukemia MOLT-4 cells; experiment: VPA-induced cell morphological change, MOLT-4 cells; assay type: cell-based
Source text: as §6

[21] = test system: HPB-ALL cells; experiment: VPA-induced cell morphological change, HPB-ALL cells; assay type: cell-based, Human
Source text: as §6

[22] = test system: ovarian cancer NCI/ADR-RES cells; experiment: VPA-induced cell morphological change, NCI/ADR-RES cells; assay type: cell-based
Source text: as §6

[23] = test system: MTC TT cells; experiment: VPA-induced cell morphological change, TT cells; assay type: cell-based
Source text: as §6

[24] = VPA treatment, confirmed by real-time PCR

CCCC(CCC)C(=O)O [VPA, valproic acid]
cell growth suppression (MTT), in words [1]: displayed growth inhibition; also recorded: suppressed cell proliferation in a dose-dependent manner; also recorded: induced growth arrest; also recorded: suppressed cervical cancer Hela cell growth in a dose-dependent manner
cell growth suppression (MTT), in words [2]: displayed growth inhibition; also recorded: induced growth arrest
cell growth suppression (MTT), in words [3]: displayed its anti-proliferative ability
cell growth suppression (MTT), in words [4]: displayed its anti-proliferative ability; also recorded: displays its anti-proliferation ability
cell growth suppression (MTT), in words [5]: little effect; also recorded: not apparent
cell growth suppression (MTT), in words [6]: displayed its anti-proliferative ability; also recorded: displays its anti-proliferation ability
cell growth suppression (MTT), in words [7]: displayed its anti-proliferative ability; also recorded: displays its anti-proliferation ability
cell growth suppression (MTT), in words [8]: displayed its anti-proliferative ability; also recorded: displays its anti-proliferation ability
cell growth suppression (MTT), in words [9]: displayed its anti-proliferative ability; also recorded: displays its anti-proliferation ability
cell growth suppression (MTT), in words [10]: induced growth arrest
cell growth suppression (MTT), in words [11]: displayed its anti-proliferative ability
cell growth suppression (MTT), in words [12]: displayed its anti-proliferative ability
tumor inhibitory rate ([13]; BON tumors in nude mice, VPA at 200 mg/kg s.c. once a day, five times a week): 47.9%
suppression of BON tumors, in words ([13]; nude mice): induced suppression
effect on expression of Notch receptors (RT-PCR), in words ([14]; VPA at serial doses, FIG. 52): significantly increase Notch1, Notch2, and Notch3, with a decrease of Notch4 expression
effect on expression of SST, BN and PACAP receptors (RT-PCR), in words ([14]; VPA treatment, FIG. 55): SSTR2 (2.2-fold, confirmed by real-time PCR), BRS3, NMBR, and VPAC2 increased and SSTR3 and VPAC1 decreased, with no obvious change in the others
increase of SSTR2 expression [14, 24]: 2.2 fold
effect on expression of Notch receptors (RT-PCR), in words ([15]; VPA at serial doses, FIG. 52): decreased Notch1 and Notch2, whereas Notch3 and Notch4 were undetectable
effect on expression of SST, BN and PACAP receptors (RT-PCR), in words ([15]; VPA treatment, FIG. 55): increased the expression of SSTR2 (19.8-fold, confirmed by real-time PCR), SSTR3, SSTR5, GRPR, BRS3, and VPAC1
increase of SSTR2 expression [15, 24]: 19.8 fold
cell morphological change, in words [16]: could induce morphological change
cell morphological change, in words [17]: no effect
cell morphological change, in words [18]: no effect
cell morphological change, in words [19]: no effect
cell morphological change, in words [20]: no effect
cell morphological change, in words [21]: no effect
cell morphological change, in words [22]: no effect
cell morphological change, in words [23]: no effect
